The source of these data is patent publication US12247022B2, “Combinations for treatment of NASH/NAFLD and related diseases” (Pfizer Inc., priority 2018, dated 2025).

Holding throughout (type): in vivo, rat
In assay [1] the test system is Ionized calcium binding adaptor molecule 1 (Iba1). The assay is described as follows: Hepatic Iba1 staining, CDAHFD fed rats. The note with it: twice daily for 6 weeks; Compound A 5 mg/kg, Compound D 30 mg/kg, or co-administration; 12 weeks on CDAHFD. As to the method:
(§1) A randomized, vehicle-controlled, 5-parallel arm study was conducted in male Wistar-Han rats (Charles River (Boston, MA)) fed a choline-deficient and high fat diet (CDAHFD) (Research diets; A16092003) to identify differences in improvements in markers of hepatic inflammation and fibrosis when administering either Compound A or Compound D alone as monotherapy or in combination. Standard laboratory conditions were used to house 60 rats (˜200 g); they were double housed and kept under 12:12-hour reverse light-dark schedule (lights off at 8:00 AM). Rats were fed choline deficient and high fat diet (CDAHFD) beginning 6-weeks prior to initiation of the study. Rats, randomized into 4 dosing groups (n=12/group), received twice daily administration of vehicle, Compound A (5 mg/kg) monotherapy, Compound D (30 mg/kg) monotherapy, or co-administration Compound A (5 mg/kg) and Compound D (30 mg/kg) for a period of 6-weeks. […] Histology was assessed following 6-weeks of drug administration which corresponded to 12 weeks on the CDAHFD. […]
(§2) Following the 12-weeks on CDAHFD, the animals were sacrificed by CO2 asphyxiation. […] A portion of the pulverized liver sample from each animal was processed and analyzed for gene expression markers of fibrogenesis. Rat taqman probes against […]SMA and COL1A1 were all assessed using Actb as housekeeping gene on qPCR. […]

Assay [2] has as its system alpha smooth muscle actin (αSMA). The assay can be described thus: Hepatic αSMA immunohistochemistry, CDAHFD fed rats. The note with it: twice daily for 6 weeks; Compound A 5 mg/kg, Compound D 30 mg/kg, or co-administration; 12 weeks on CDAHFD. As to the method: as §1, §2
For the next assay, the system named is SREBP-1. The assay is described as follows: Nuclear SREBP-1 localization in liver (Western blot, normalized to Histone 2B), Western diet fed rats. The settings on record: high dose (Compound A 10 mg/kg QD, Compound D 30 mg/kg BID); pooled liver samples per group. As to the method: A randomized, vehicle-controlled, 8-parallel arm study was conducted in male Sprague-Dawley rats (Charles River (Boston, MA)) to obtain circulating and hepatic TG levels. Standard laboratory conditions were used to house 96 rats (˜200 g); they were double housed and kept under 12:12-hour reverse light-dark schedule (lights off at 8:00 AM). Rats were randomized into chow or Western diet groups and dose groups upon arrival and were given a 14-day lead-in period on either standard rat chow or Western diet prior to the start of the study. Standard Laboratory Rodent chow diet, 5053, was from LabDiet (PMI, St Louis, Missouri). Western Diet, D12079Bi, was from Research Diets (New Brunswick, New Jersey). […]
Nuclear and Membrane fractions were prepared by ultracentrifugation using standard methods from a portion of the pulverized liver samples, that were pooled per treatment group. Samples from the nuclear extract and the membrane fractions were analyzed by Western blotting for SREBP1. […] Nuclear SREBP1 levels were quantified using relative units and normalized to Histone 2B to control for sample loss during the nuclear fractionation and gel loading.

Assay [3] relates to fatty acid synthase (FASN). The assay is described as follows: Hepatic lipogenic gene expression (qPCR), Western diet fed rats: FASN. The settings on record: Actb housekeeping gene. The protocol: (§3) A randomized, vehicle-controlled, 8-parallel arm study was conducted in male Sprague-Dawley rats (Charles River (Boston, MA)) to obtain circulating and hepatic TG levels. Standard laboratory conditions were used to house 96 rats (˜200 g); they were double housed and kept under 12:12-hour reverse light-dark schedule (lights off at 8:00 AM). Rats were randomized into chow or Western diet groups and dose groups upon arrival and were given a 14-day lead-in period on either standard rat chow or Western diet prior to the start of the study. Standard Laboratory Rodent chow diet, 5053, was from LabDiet (PMI, St Louis, Missouri). Western Diet, D12079Bi, was from Research Diets (New Brunswick, New Jersey).
Starting on Day 1 of the study, rats were dosed orally (10 mL/kg) with either vehicle control (0.5% MC (wt/volume %) in dionized water), low or high doses of Compound A (1 mg/kg or 10 mg/kg QD, respectively), low or high doses of Compound D (5 mg/kg or 30 mg/kg BID respectively), or co-administration of low doses (Compound A at 1 mg/kg QD and Compound D at 5 mg/kg BID), or co-administration of high doses (Compound A at 10 mg/kg QD and Compound D at 30 mg/kg BID) […]
Another portion of the pulverized liver was processed and analyzed for lipogenic gene expression. Rat taqman probes against ACC1, FASN, SCD1, PCSK9 and SREBP-1c were all assessed using Actb as housekeeping gene on qPCR.

The test system of assay [4] is Western diet fed Sprague Dawley rats. The assay can be described thus: Fasted plasma triglyceride (TG), Western diet fed rats, oral dosing. The settings on record: oral monotherapy, 4 hour fast, 2 hours post-dose. The protocol:
as §3
For these studies, vehicle was prepared to make a 0.5% (wt/volume) of methyl cellulose (MC, Sigma Aldrich; 274429) in deionized water. The stock solutions with either Compound A (prepared from the tris salt) or Compound D were prepared with the respective compound to provide a concentration such that 10 ml of the solution would deliver the desired mg/kg dosage amount, where the average weight of the rats used was about 200 g.
Starting on Day 1 of the study, rats were dosed orally (10 mL/kg) with either vehicle control (0.5% MC (wt/volume %) in dionized water), low or high doses of Compound A (1 mg/kg or 10 mg/kg QD, respectively), low or high doses of Compound D (5 mg/kg or 30 mg/kg BID respectively), or co-administration of low doses (Compound A at 1 mg/kg QD and Compound D at 5 mg/kg BID), or co-administration of high doses (Compound A at 10 mg/kg QD and Compound D at 30 mg/kg BID)
Fasted plasma analytes: Blood for determining fasted plasma TG was collected after a 4 hour fast, 2 hours post-dose (2 hours into the dark cycle) via lateral tail vein, transferred to BD Microtainer tubes coated with K2EDTA (PN365974), and centrifuged at 4° C. The resulting plasma samples were then analyzed on a Siemens Chemistry XPT clinical analyzer (Malven, PA) using Siemens triglycerides 2 assay reagents (ref 10335892).

Turning to `COc1cc(C(=O)N2CCC3(CC2)CC(=O)c2c(cnn2C(C)C)C3)cc(-c2ccc(C(=O)O)cc2)n1` [Compound A, 4-(4-(1-isopropyl-7-oxo-1,4,6,7-tetrahydrospiro[indazole-5,4′-piperidine]-1′-carbonyl)-6-methoxypyridin-2-yl)benzoic acid], the “reduction of Iba1 staining” value in assay [1] came out at 15%. Besides, in assay [2], the “reduction of liver αSMA staining” value was 41%. In addition, the “nuclear localization of SREBP-1, relative to vehicle treated Western diet fed rats” value in the assay with SREBP-1 is reported as “increased nuclear localization of SREBP-1”. In addition, the “hepatic FASN gene expression relative to Western Diet fed and vehicle treated animals” value in assay [3] (Compound A high dose only (10 mg/kg QD)) is on record as “trended to further increase”. The “increase in fasted plasma TG, relative to vehicle administered Western diet fed rats” value is 1.7 fold in assay [4] (high dose (Compound A 10 mg/kg QD)) and 2.4 fold in assay [4] (low dose (Compound A 1 mg/kg QD)).

For `CCOc1cccnc1Oc1cncc(-c2ncc(C(=O)N[C@H]3CCOC3)cn2)c1` [Compound D, (S)-2-(5-((3-ethoxypyridin-2-yl)oxy)pyridin-3-yl)-N-(tetrahydrofuran-3-yl)pyrimidine-5-carboxamide], the “reduction of Iba1 staining” value in assay [1] was “did not alter”. Moreover, in assay [2], the “reduction of liver αSMA staining” value turned out to be 23%. The “nuclear localization of SREBP-1, relative to vehicle treated Western diet fed rats” value in the assay with SREBP-1 was “reduced SREBP-1 nuclear localization”. Besides, in assay [3] (Day 28 liver), the “hepatic FASN gene expression relative to Western Diet fed and vehicle treated animals” value is “decreased expression”. Further, the “reduction of fasted plasma TG, relative to vehicle administered Western diet fed rats” value was 35% in assay [4] (high dose (Compound D 30 mg/kg BID)) and 20% in assay [4] (low dose (Compound D 5 mg/kg BID)).
